In ChEMBL document CHEMBL4507270 (2021):

How the values were obtained:
[1] = target: Beta-3 adrenergic receptor (Homo sapiens, UniProt P13945); details: Compound concentration 10.0 uM
[2] = target: Serine/threonine-protein kinase D2 (Homo sapiens) (UniProt Q9BZL6)
[3] = target: Muscarinic acetylcholine receptor M2 (Homo sapiens) (UniProt P08172); details: Compound concentration 10.0 uM
[4] = target: Receptor-type tyrosine-protein kinase FLT3 (Homo sapiens) (UniProt P36888)
[5] = system: Epidermal growth factor receptor (Homo sapiens), P00533 [UNDEFINED MUTATION]
[6] = target: Alpha-1A adrenergic receptor (Homo sapiens) (UniProt P35348); details: Compound concentration 10.0 uM
Alpha-1A adrenergic receptor (Homo sapiens), sequence (P35348 whole entry): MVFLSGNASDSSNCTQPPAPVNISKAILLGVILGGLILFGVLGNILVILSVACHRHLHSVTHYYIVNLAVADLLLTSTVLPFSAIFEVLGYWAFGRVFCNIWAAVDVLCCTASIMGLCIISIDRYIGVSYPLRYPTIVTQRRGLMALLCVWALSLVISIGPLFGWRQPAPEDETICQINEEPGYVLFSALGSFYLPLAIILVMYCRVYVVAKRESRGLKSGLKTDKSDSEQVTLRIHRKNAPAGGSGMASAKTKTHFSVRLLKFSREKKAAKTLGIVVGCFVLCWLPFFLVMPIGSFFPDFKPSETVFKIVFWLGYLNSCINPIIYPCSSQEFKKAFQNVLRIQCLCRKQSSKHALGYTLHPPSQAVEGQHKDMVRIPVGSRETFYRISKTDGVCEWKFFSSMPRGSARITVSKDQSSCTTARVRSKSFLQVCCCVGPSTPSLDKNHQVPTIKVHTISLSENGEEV

[7] = target: Tyrosine-protein kinase Blk (Homo sapiens) (UniProt P51451)
[8] = target: Leucine-rich repeat serine/threonine-protein kinase 2 (Homo sapiens) (UniProt Q5S007)
[9] = target: Dual specificity tyrosine-phosphorylation-regulated kinase 1A (Homo sapiens) (UniProt Q13627)
[10] = target: Histamine H2 receptor (Homo sapiens) (UniProt P25021); details: Compound concentration 10.0 uM
[11] = target: Serine/threonine-protein kinase LATS2 (Homo sapiens) (UniProt Q9NRM7)
Serine/threonine-protein kinase LATS2 (Homo sapiens), sequence (Q9NRM7 whole entry): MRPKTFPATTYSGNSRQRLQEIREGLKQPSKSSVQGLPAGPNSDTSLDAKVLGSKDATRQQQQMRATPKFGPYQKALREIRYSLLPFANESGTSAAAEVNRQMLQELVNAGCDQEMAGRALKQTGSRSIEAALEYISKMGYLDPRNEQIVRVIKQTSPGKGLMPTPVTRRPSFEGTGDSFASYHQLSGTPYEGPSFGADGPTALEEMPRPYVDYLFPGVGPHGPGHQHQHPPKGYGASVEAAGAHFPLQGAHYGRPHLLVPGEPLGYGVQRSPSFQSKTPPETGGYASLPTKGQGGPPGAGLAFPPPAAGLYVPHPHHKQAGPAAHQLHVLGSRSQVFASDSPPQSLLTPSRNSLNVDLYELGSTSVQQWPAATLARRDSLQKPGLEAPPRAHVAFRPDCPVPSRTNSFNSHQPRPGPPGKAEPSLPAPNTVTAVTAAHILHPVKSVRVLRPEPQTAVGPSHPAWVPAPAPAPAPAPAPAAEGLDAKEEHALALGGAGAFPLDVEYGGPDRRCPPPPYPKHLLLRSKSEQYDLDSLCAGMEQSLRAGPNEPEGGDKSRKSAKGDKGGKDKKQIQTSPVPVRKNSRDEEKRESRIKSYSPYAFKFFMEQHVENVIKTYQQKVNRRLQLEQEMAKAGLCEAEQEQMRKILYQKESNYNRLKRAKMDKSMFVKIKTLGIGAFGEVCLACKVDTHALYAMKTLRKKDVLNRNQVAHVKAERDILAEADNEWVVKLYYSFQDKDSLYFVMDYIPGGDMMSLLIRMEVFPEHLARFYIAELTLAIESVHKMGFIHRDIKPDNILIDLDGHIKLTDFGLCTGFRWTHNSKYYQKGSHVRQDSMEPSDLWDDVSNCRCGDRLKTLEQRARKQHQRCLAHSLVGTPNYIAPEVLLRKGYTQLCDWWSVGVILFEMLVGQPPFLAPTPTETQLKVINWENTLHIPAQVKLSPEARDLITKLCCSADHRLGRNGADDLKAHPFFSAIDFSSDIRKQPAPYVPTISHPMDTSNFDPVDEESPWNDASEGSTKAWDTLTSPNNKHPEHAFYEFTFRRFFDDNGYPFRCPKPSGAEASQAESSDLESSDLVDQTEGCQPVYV

[12] = target: Tyrosine-protein kinase Fyn (Homo sapiens) (UniProt P06241)
[13] = target: Proto-oncogene tyrosine-protein kinase Src (Homo sapiens) (UniProt P12931)
[14] = target: Protein kinase C delta type (Homo sapiens) (UniProt Q05655)
[15] = target: Mitogen-activated protein kinase 15 (Homo sapiens) (UniProt Q8TD08)
[16] = target: LIM domain kinase 2 (Homo sapiens) (UniProt P53671)
[17] = target: Mitogen-activated protein kinase 7 (Homo sapiens) (UniProt Q13164)
[18] = NanoBRET assay (SGC Frankfurt) with LYN; details: Homo sapiens
[19] = target: Serine/threonine-protein kinase 24 (Homo sapiens) (UniProt Q9Y6E0)
Serine/threonine-protein kinase 24 (Homo sapiens), sequence (Q9Y6E0 whole entry, looked up): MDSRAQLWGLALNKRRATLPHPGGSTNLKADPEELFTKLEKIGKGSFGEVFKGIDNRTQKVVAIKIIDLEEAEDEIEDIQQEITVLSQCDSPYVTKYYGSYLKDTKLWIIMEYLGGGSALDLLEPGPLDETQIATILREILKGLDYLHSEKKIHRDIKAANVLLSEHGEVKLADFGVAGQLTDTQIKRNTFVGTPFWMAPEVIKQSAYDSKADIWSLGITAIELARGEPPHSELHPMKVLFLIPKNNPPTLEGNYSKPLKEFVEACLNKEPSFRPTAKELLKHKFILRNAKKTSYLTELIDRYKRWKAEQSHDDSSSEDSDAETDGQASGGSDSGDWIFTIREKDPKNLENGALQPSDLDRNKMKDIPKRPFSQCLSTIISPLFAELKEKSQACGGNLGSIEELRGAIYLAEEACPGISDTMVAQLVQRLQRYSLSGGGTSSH

[20] = target: Muscarinic acetylcholine receptor M3 (Homo sapiens) (UniProt P20309); details: Compound concentration 10.0 uM
[21] = system: Hepatocyte growth factor receptor (Homo sapiens), P08581 [Y1235D]
[22] = target: Mitotic checkpoint serine/threonine-protein kinase BUB1 (Homo sapiens) (UniProt O43683)
[23] = target: Phosphatidylinositol 5-phosphate 4-kinase type-2 gamma (Homo sapiens) (UniProt Q8TBX8)
[24] = target: 5-hydroxytryptamine receptor 1A (Homo sapiens) (UniProt P08908); details: Compound concentration 10.0 uM
[25] = target: Calcium/calmodulin-dependent protein kinase type 1G (Homo sapiens) (UniProt Q96NX5)
[26] = target: Serine/threonine-protein kinase WNK4 (Homo sapiens) (UniProt Q96J92)
[27] = system: Tyrosine-protein kinase ABL1 (Homo sapiens), P00519 [F317L]
[28] = target: Mitogen-activated protein kinase 12 (Homo sapiens) (UniProt P53778)
[29] = target: Mitogen-activated protein kinase kinase kinase 3 (Homo sapiens) (UniProt Q99759)
Mu-type opioid receptor = Mu-type opioid receptor (Homo sapiens, UniProt P35372); details: Compound concentration 10.0 uM
[30] = target: Cyclin-dependent kinase 13 (Homo sapiens) (UniProt Q14004)
[31] = target: Casein kinase I isoform gamma-2 (Homo sapiens) (UniProt P78368)
Casein kinase I isoform gamma-2 (Homo sapiens), sequence (P78368 whole entry, looked up, canonical isoform): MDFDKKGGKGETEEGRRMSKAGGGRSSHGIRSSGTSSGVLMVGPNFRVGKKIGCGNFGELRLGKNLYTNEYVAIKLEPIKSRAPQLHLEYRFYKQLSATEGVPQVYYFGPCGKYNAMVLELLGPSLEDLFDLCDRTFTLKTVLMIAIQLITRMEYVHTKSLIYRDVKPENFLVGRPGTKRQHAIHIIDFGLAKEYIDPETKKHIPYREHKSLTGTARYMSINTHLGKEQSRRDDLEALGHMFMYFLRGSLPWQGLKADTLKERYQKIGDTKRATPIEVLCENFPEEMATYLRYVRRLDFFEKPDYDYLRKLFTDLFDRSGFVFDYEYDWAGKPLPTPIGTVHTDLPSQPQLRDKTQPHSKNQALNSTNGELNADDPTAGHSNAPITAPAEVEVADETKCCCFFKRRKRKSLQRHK

[32] = target: Mitogen-activated protein kinase 8 (Homo sapiens) (UniProt P45983)
[33] = target: 5-hydroxytryptamine receptor 2A (Homo sapiens) (UniProt P28223); details: Compound concentration 10.0 uM
[34] = target: Ephrin type-A receptor 1 (Homo sapiens) (UniProt P21709)
Ephrin type-A receptor 1 (Homo sapiens), sequence (P21709 whole entry): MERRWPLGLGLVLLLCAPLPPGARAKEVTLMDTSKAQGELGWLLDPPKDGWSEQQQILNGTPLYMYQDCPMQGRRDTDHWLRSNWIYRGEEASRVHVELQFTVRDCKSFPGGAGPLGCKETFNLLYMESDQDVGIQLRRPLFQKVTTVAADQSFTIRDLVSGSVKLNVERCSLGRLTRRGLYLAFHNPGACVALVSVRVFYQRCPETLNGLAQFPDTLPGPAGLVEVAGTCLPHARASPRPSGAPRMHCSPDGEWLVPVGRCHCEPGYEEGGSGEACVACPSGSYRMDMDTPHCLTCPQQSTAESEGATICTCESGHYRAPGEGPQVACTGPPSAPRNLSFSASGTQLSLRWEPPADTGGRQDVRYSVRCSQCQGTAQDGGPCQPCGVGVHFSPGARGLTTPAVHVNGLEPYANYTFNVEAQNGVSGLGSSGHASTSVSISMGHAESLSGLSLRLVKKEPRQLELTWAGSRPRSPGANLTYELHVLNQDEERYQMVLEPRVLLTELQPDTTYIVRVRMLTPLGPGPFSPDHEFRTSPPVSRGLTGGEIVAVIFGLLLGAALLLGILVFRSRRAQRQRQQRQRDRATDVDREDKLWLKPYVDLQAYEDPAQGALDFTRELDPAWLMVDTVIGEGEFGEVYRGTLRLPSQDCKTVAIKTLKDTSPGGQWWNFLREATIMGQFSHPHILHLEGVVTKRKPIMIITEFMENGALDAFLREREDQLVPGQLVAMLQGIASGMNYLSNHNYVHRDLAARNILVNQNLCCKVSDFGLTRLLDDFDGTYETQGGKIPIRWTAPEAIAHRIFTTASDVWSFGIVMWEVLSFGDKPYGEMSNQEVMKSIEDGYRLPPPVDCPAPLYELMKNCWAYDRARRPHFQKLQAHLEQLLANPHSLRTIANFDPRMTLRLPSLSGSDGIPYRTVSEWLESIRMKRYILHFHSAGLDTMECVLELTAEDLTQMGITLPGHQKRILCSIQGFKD

[35] = system: Tyrosine-protein kinase ABL1 (Homo sapiens), P00519 [M351T]
[36] = system: eIF-2-alpha kinase GCN2 (Homo sapiens), Q9P2K8 [S808G]
eIF-2-alpha kinase GCN2 (Homo sapiens), Q9P2K8 [S808G], sequence (Q9P2K8 whole entry S808G): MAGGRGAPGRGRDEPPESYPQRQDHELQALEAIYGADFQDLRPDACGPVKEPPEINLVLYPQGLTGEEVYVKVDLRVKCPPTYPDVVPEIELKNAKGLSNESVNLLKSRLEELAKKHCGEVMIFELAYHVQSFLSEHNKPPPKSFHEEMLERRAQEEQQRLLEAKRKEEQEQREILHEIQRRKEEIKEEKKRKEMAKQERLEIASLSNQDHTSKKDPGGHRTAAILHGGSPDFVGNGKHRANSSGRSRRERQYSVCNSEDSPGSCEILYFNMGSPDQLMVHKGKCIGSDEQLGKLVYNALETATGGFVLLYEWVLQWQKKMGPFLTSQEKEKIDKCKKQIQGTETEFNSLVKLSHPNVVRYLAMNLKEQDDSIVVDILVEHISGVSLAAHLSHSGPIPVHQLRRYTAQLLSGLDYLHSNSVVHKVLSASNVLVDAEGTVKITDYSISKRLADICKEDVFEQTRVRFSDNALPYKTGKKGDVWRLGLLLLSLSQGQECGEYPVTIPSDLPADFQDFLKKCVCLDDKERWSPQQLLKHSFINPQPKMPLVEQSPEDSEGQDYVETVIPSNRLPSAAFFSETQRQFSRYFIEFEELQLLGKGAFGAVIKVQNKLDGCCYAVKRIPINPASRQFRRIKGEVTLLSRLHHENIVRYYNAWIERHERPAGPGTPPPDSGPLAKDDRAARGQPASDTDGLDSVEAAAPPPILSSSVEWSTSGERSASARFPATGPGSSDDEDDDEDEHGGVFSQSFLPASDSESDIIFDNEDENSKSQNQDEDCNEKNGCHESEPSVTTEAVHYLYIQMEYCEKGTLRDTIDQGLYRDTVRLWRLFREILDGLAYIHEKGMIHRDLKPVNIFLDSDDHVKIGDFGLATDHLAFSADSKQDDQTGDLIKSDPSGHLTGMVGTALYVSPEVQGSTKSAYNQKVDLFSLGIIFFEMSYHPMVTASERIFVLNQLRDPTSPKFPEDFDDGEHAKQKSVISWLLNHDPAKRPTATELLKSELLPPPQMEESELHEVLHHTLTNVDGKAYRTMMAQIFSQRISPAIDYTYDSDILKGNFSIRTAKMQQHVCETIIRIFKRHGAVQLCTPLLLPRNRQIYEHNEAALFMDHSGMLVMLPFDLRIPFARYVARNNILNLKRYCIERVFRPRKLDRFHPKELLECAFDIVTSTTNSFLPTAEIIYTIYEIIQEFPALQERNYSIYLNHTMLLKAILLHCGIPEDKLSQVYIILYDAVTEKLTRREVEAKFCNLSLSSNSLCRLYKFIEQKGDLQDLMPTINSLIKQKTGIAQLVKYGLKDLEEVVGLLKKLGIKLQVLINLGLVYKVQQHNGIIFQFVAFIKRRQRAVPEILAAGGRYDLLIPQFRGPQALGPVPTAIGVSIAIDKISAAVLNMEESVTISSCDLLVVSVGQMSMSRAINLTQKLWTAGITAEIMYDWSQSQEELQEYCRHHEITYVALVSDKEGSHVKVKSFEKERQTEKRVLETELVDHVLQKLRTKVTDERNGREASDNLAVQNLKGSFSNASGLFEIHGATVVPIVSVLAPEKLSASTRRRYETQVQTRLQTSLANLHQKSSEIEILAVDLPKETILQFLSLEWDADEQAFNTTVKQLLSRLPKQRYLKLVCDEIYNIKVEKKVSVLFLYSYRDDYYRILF

[37] = target: Activin receptor type-2A (Homo sapiens) (UniProt P27037)
[38] = target: Bone morphogenetic protein receptor type-1A (Homo sapiens) (UniProt P36894)
[39] = target: Ribosomal protein S6 kinase alpha-6 (Homo sapiens) (UniProt Q9UK32)
[40] = target: Vascular endothelial growth factor receptor 1 (Homo sapiens) (UniProt P17948)
[41] = target: Tyrosine-protein kinase ABL1 (Homo sapiens) (UniProt P00519)
[42] = target: Serine/threonine-protein kinase PAK 3 (Homo sapiens) (UniProt O75914)
[43] = target: Serine/threonine-protein kinase VRK2 (Homo sapiens) (UniProt Q86Y07)
[44] = target: Dual specificity tyrosine-phosphorylation-regulated kinase 2 (Homo sapiens) (UniProt Q92630)
[45] = target: cAMP-dependent protein kinase catalytic subunit beta (Homo sapiens) (UniProt P22694)
[46] = Compound concentration 100.0 nM
[47] = Compound concentration 1000.0 nM

Work on `Cc1cc(C)c(-n2ccn3nc(-c4cccnc4)cc23)cc1NC(=O)c1cc(C#N)cc(S(F)(F)(F)(F)F)c1` [BAY-826] yielded an inhibition [1] of 52.3%, a residual activity [2, 46] of 100% and an inhibition [3] of 10.5%. The residual activity [4, 46] was 100%, the residual activity [5, 46] was 85.5% and the inhibition [6] was -3.02%. It also gave a residual activity [7, 46] of 100%, a residual activity [8, 46] of 83.5% and a residual activity [9, 46] of 82.8%. It also gave an inhibition [10] of 25.6%, a residual activity [11, 46] of 73.2% and a residual activity [12, 46] of 97.5%. For the same compound, the residual activity [13, 46] was 92.6%, the residual activity [14, 46] was 93.1% and the residual activity [15, 46] was 94.1%. The residual activity [16, 46] was 89%, the residual activity [17, 46] was 100% and the EC50 [18] was 7.4 µM (not active). For the same compound, the IC50 [18] was 8.2 µM (not active), the residual activity [19, 46] was 75.9% and the inhibition [20] was 10.5%. The residual activity [21, 46] was 93.4%, the residual activity [22, 46] was 99.8% and the residual activity [23, 46] was 89.9%. The inhibition [24] was -6.68%, the residual activity [25, 46] was 100% and the residual activity [26, 46] was 100%. For the same compound, the residual activity [27, 46] was 26.6%, the residual activity [28, 46] was 61.2% and the residual activity [29, 46] was 67.3%. It also gave an inhibition (Mu-type opioid receptor) of 20.7%, a residual activity [30, 46] of 59% and a residual activity [31, 46] of 77.6%. For the same compound, the residual activity [32, 46] was 76.8%, the inhibition [33] was -4.7% and the residual activity [34, 46] was 100%. It also gave a residual activity [35, 46] of 82.6%, a residual activity [36, 46] of 100% and a residual activity [37, 46] of 100%. For the same compound, the residual activity [38, 46] was 97.2%, the residual activity [39, 46] was 80.4% and the residual activity [40, 46] was 91.5%. For the same compound, the residual activity [41, 46] was 74.6%, the residual activity [42, 46] was 26.1% and the residual activity [43, 46] was 79.8%. For the same compound, the residual activity [44, 46] was 82.5% and the residual activity [45, 46] was 100%.
In the case of `Cc1cc(NC(=O)c2cccc(S(F)(F)(F)(F)F)c2)cc(-n2ccn3nc(-c4cccnc4)cc23)c1` [BAY-309], the inhibition [1] was 32.3%, the residual activity [2, 47] was 100% and the inhibition [3] was 32.7%. The residual activity [4, 47] was 100%, the residual activity [5, 47] was 95.1% and the inhibition [6] was 5.89%. It also gave a residual activity [7, 47] of 100%, a residual activity [8, 47] of 74.6% and a residual activity [9, 47] of 100%. The inhibition [10] was 46.1%, the residual activity [11, 47] was 100% and the residual activity [12, 47] was 81.3%. For the same compound, the residual activity [13, 47] was 100%, the residual activity [14, 47] was 95.8% and the residual activity [15, 47] was 100%. For the same compound, the residual activity [16, 47] was 95.3%, the residual activity [17, 47] was 90% and the EC50 [18] was > 50 µM (not active). The IC50 [18] was 7 µM (not active), the residual activity [19, 47] was 100% and the inhibition [20] was 16.3%. For the same compound, the residual activity [21, 47] was 100%, the residual activity [22, 47] was 100% and the residual activity [23, 47] was 99.1%. The inhibition [24] was 39.9%, the residual activity [25, 47] was 100% and the residual activity [26, 47] was 100%. It also gave a residual activity [27, 47] of 100%, a residual activity [28, 47] of 41.7% and a residual activity [29, 47] of 87.9%. The inhibition (Mu-type opioid receptor) was 60%, the residual activity [30, 47] was 64.2% and the residual activity [31, 47] was 95.4%. For the same compound, the residual activity [32, 47] was 55.9%, the inhibition [33] was 21.9% and the residual activity [34, 47] was 100%. The residual activity [35, 47] was 70.3%, the residual activity [36, 47] was 100% and the residual activity [37, 47] was 100%. It also gave a residual activity [38, 47] of 94.4%, a residual activity [39, 47] of 100% and a residual activity [40, 47] of 100%. For the same compound, the residual activity [41, 47] was 73.6%, the residual activity [42, 47] was 100% and the residual activity [43, 47] was 100%. It also gave a residual activity [44, 47] of 100% and a residual activity [45, 47] of 100%.
